# From the supplement of paper PMC10307832
# Columns and labels:
# Assay in all cases: relative viability (nuclei count vs DMSO), 5 days (fraction); higher = more cells survive
# NCI-H1975 = test system: NCI-H1975
# In short: (§1)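 Values are medians from duplicate plates. Each reflects relative viability, defined as the nuclei count of treated wells over that of vehicle wells. Lung cancer cell lines in 1536-well plates were pin-tool dosed one day after seeding with one drug alone or with a fixed anchor-drug dose plus five library-drug doses (not always all listed) in √10 steps, then fixed, stained and imaged at 4× after 5 days.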
# NCI-H322M = test system: NCI-H322M
# In short: as §1
# RERF-LC-KJ = test system: RERF-LC-KJ
# In short: as §1
# PC-3 [JPC-3] = test system: PC-3 [JPC-3]
# In short: as §1
# NCI-H1355 = test system: NCI-H1355
# In short: as §1
# NCI-H1563 = test system: NCI-H1563
# In short: as §1
# EKVX = test system: EKVX
# In short: as §1
# LK-2 = test system: LK-2
# In short: as §1
# CAL-12T = test system: CAL-12T
# In short: as §1
# H3255 = test system: H3255
# In short: as §1
# NCI-H1734 = test system: NCI-H1734
# In short: as §1
# LCLC-97TM1 = test system: LCLC-97TM1
# In short: as §1
# NCI-H2405 = test system: NCI-H2405
# In short: as §1
# NCI-H2228 = test system: NCI-H2228
# In short: as §1
# HCC-827 = test system: HCC-827
# In short: as §1
# PC-14 = test system: PC-14
# In short: as §1
# NCI-H661 = test system: NCI-H661
# In short: as §1
# HCC-15 = test system: HCC-15
# In short: as §1
# NCI-H520 = test system: NCI-H520
# In short: as §1
# NCI-H1650 = test system: NCI-H1650
# In short: as §1
# NCI-H1755 = test system: NCI-H1755
# In short: as §1
structure (smiles),measurement,setting,value
COc1cc2nccc(Oc3ccc(NC(=O)Nc4cc(C)on4)c(Cl)c3)c2cc1OC [Tivozanib] + CS(=O)(=O)N1CCN(Cc2cc3nc(-c4cccc5[nH]ncc45)nc(N4CCOCC4)c3s2)CC1 [Pictilisib] (partner 1 µM),relative viability,NCI-H1975; first compound 0.005 µM,0.278
same,relative viability,NCI-H1975; first compound 0.01581 µM,0.277
same,relative viability,NCI-H1975; first compound 0.05 µM,0.271
same,relative viability,NCI-H1975; first compound 0.1581 µM,0.234
same,relative viability,NCI-H1975; first compound 0.5 µM,0.275
same,relative viability,NCI-H322M; first compound 0.005 µM,0.484
same,relative viability,NCI-H322M; first compound 0.01581 µM,0.518
same,relative viability,NCI-H322M; first compound 0.05 µM,0.529
same,relative viability,NCI-H322M; first compound 0.1581 µM,0.465
same,relative viability,NCI-H322M; first compound 0.5 µM,0.568
same,relative viability,RERF-LC-KJ; first compound 0.005 µM,0.509
same,relative viability,RERF-LC-KJ; first compound 0.01581 µM,0.471
same,relative viability,RERF-LC-KJ; first compound 0.05 µM,0.533
same,relative viability,RERF-LC-KJ; first compound 0.1581 µM,0.356
same,relative viability,RERF-LC-KJ; first compound 0.5 µM,0.586
same,relative viability,PC-3 [JPC-3]; first compound 0.005 µM,0.705
same,relative viability,PC-3 [JPC-3]; first compound 0.01581 µM,0.698
same,relative viability,PC-3 [JPC-3]; first compound 0.05 µM,0.757
same,relative viability,PC-3 [JPC-3]; first compound 0.1581 µM,0.604
same,relative viability,PC-3 [JPC-3]; first compound 0.5 µM,0.706
same,relative viability,NCI-H1355; first compound 0.005 µM,0.381
same,relative viability,NCI-H1355; first compound 0.01581 µM,0.41
same,relative viability,NCI-H1355; first compound 0.05 µM,0.441
same,relative viability,NCI-H1355; first compound 0.5 µM,0.387
same,relative viability,NCI-H1563; first compound 0.005 µM,0.668
same,relative viability,NCI-H1563; first compound 0.01581 µM,0.729
same,relative viability,NCI-H1563; first compound 0.05 µM,0.622
same,relative viability,NCI-H1563; first compound 0.1581 µM,0.699
same,relative viability,NCI-H1563; first compound 0.5 µM,0.581
same,relative viability,EKVX; first compound 0.005 µM,0.392
same,relative viability,EKVX; first compound 0.01581 µM,0.426
same,relative viability,EKVX; first compound 0.05 µM,0.535
same,relative viability,EKVX; first compound 0.1581 µM,0.394
same,relative viability,EKVX; first compound 0.5 µM,0.497
same,relative viability,LK-2; first compound 0.005 µM,0.574
same,relative viability,LK-2; first compound 0.01581 µM,0.472
same,relative viability,LK-2; first compound 0.05 µM,0.6
same,relative viability,LK-2; first compound 0.1581 µM,0.459
same,relative viability,LK-2; first compound 0.5 µM,0.909
same,relative viability,CAL-12T; first compound 0.005 µM,0.212
same,relative viability,CAL-12T; first compound 0.01581 µM,0.445
same,relative viability,CAL-12T; first compound 0.05 µM,0.608
same,relative viability,CAL-12T; first compound 0.5 µM,0.404
same,relative viability,H3255; first compound 0.005 µM,0.451
same,relative viability,H3255; first compound 0.01581 µM,0.435
same,relative viability,H3255; first compound 0.05 µM,0.538
same,relative viability,H3255; first compound 0.1581 µM,0.449
same,relative viability,H3255; first compound 0.5 µM,0.421
same,relative viability,NCI-H1734; first compound 0.005 µM,0.45
same,relative viability,NCI-H1734; first compound 0.01581 µM,0.443
same,relative viability,NCI-H1734; first compound 0.05 µM,0.456
same,relative viability,NCI-H1734; first compound 0.1581 µM,0.359
same,relative viability,NCI-H1734; first compound 0.5 µM,0.442
same,relative viability,LCLC-97TM1; first compound 0.005 µM,0.206
same,relative viability,LCLC-97TM1; first compound 0.01581 µM,0.23
same,relative viability,LCLC-97TM1; first compound 0.1581 µM,0.119
same,relative viability,LCLC-97TM1; first compound 0.5 µM,0.164
same,relative viability,NCI-H2405; first compound 0.005 µM,0.34
same,relative viability,NCI-H2405; first compound 0.01581 µM,0.398
same,relative viability,NCI-H2405; first compound 0.05 µM,0.428
same,relative viability,NCI-H2405; first compound 0.1581 µM,0.312
same,relative viability,NCI-H2405; first compound 0.5 µM,0.342
same,relative viability,NCI-H2228; first compound 0.005 µM,0.402
same,relative viability,NCI-H2228; first compound 0.01581 µM,0.421
same,relative viability,NCI-H2228; first compound 0.05 µM,0.528
same,relative viability,NCI-H2228; first compound 0.1581 µM,0.297
same,relative viability,NCI-H2228; first compound 0.5 µM,0.514
same,relative viability,HCC-827; first compound 0.005 µM,0.864
same,relative viability,HCC-827; first compound 0.01581 µM,0.924
same,relative viability,HCC-827; first compound 0.05 µM,1.01
same,relative viability,HCC-827; first compound 0.1581 µM,1.24
same,relative viability,HCC-827; first compound 0.5 µM,0.982
same,relative viability,PC-14; first compound 0.005 µM,0.631
same,relative viability,PC-14; first compound 0.01581 µM,0.604
same,relative viability,PC-14; first compound 0.05 µM,0.693
same,relative viability,PC-14; first compound 0.1581 µM,0.51
same,relative viability,PC-14; first compound 0.5 µM,0.635
same,relative viability,NCI-H661; first compound 0.005 µM,0.37
same,relative viability,NCI-H661; first compound 0.01581 µM,0.339
same,relative viability,NCI-H661; first compound 0.05 µM,0.55
same,relative viability,NCI-H661; first compound 0.1581 µM,0.28
same,relative viability,NCI-H661; first compound 0.5 µM,0.38
same,relative viability,HCC-15; first compound 0.005 µM,0.631
same,relative viability,HCC-15; first compound 0.01581 µM,0.641
same,relative viability,HCC-15; first compound 0.05 µM,0.719
same,relative viability,HCC-15; first compound 0.1581 µM,0.588
same,relative viability,HCC-15; first compound 0.5 µM,0.717
same,relative viability,NCI-H520; first compound 0.005 µM,0.263
same,relative viability,NCI-H520; first compound 0.01581 µM,0.256
same,relative viability,NCI-H520; first compound 0.05 µM,0.295
same,relative viability,NCI-H520; first compound 0.1581 µM,0.242
same,relative viability,NCI-H520; first compound 0.5 µM,0.302
same,relative viability,NCI-H1650; first compound 0.005 µM,0.561
same,relative viability,NCI-H1650; first compound 0.01581 µM,0.594
same,relative viability,NCI-H1650; first compound 0.05 µM,0.621
same,relative viability,NCI-H1650; first compound 0.1581 µM,0.558
same,relative viability,NCI-H1650; first compound 0.5 µM,0.498
same,relative viability,NCI-H1755; first compound 0.005 µM,0.365
same,relative viability,NCI-H1755; first compound 0.01581 µM,0.402
same,relative viability,NCI-H1755; first compound 0.05 µM,0.453
same,relative viability,NCI-H1755; first compound 0.1581 µM,0.405
same,relative viability,NCI-H1755; first compound 0.5 µM,0.396
